Reference: BindingDB's records for patent US20240190892 (Merck Sharp & Dohme, 2024)

Tests used:
[1] = target: Plasma kallikrein (Homo sapiens, UniProt P03952); experiment: Plasma Kallikrein Assay
Description: (§1) The effectiveness of a compound of the present invention as an inhibitor of plasma kallikrein can be determined using a relevant purified serine protease, and an appropriate synthetic substrate. The rate of hydrolysis of the chromogenic or fluorogenic substrate by the relevant serine protease was measured both in the absence and presence of compounds of the present invention. Assays were conducted at rt or at 37° C. […] A decrease in the rate of fluorescence change in the presence of inhibitor is indicative of enzyme inhibition. Such methods are known to one skilled in the art. The results of this assay are expressed as the half-maximal inhibitory concentrations (IC50), or the inhibitory constant, Ki.

[2] = target: Coagulation factor XI (Homo sapiens, UniProt P03951); experiment: Factor XIa Assay
Coagulation factor XI, sequence (P03951 19-387 limits assumed): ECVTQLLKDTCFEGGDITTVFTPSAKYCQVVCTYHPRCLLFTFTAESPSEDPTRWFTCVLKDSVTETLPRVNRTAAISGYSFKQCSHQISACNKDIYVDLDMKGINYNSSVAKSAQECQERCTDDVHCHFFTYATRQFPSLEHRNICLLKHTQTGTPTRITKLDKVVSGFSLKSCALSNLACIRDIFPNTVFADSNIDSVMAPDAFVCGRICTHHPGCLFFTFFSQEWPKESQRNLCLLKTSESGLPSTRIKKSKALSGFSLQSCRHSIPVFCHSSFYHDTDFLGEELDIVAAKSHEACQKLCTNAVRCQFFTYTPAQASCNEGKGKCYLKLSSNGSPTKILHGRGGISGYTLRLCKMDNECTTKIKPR
Coagulation factor XI, sequence (P03951 388-625 limits assumed): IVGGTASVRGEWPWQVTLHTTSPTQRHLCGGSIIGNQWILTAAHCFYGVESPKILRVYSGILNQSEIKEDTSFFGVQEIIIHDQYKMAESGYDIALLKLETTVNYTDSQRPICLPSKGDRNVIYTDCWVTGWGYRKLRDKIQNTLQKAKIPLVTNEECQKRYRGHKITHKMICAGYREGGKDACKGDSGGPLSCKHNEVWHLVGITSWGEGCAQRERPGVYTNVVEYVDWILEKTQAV
Description: as §1, with “Coagulation factor XIa” for “plasma kallikrein”

Plasma kallikrein, sequence (P03952 20-390 limits assumed): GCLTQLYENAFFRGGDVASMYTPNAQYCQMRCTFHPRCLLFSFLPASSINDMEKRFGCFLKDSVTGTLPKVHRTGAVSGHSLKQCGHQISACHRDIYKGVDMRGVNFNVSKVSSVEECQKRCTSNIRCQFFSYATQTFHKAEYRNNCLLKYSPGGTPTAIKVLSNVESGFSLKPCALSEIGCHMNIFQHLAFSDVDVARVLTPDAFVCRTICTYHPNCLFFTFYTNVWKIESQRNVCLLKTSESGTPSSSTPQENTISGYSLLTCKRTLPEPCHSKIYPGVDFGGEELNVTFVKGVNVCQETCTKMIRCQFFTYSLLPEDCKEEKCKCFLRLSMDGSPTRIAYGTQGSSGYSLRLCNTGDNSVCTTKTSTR
Plasma kallikrein, sequence (P03952 391-638 limits assumed): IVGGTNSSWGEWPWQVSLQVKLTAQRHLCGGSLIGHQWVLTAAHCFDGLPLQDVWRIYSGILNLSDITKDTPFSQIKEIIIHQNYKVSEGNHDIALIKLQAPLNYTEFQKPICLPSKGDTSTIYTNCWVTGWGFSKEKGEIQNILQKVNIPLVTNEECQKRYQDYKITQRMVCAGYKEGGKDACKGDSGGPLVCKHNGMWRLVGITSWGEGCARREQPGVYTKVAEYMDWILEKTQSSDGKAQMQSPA

IC50 [1]: 28.4 nM | IC50 [2]: ≥ 10000 nM
SMILES: CC1(O)CN(c2ccc(CNC(=O)c3cncc(N4CC[C@]5(C4)OC(=O)Nc4ccc(Cl)c(F)c45)n3)cn2)C1 [US20240190892, Example 35]
